Source: the supplement of paper PMC4862054

Experiments:
Details in all cases: incubation time: 72 h
CAL-51 [1] = assay: normalised response (% of control), CellTox Green; higher = less cell death (100 = DMSO, 0 = benzethonium chloride kill control)
In short: (§1)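 In 384-well plates holding compound at 5 concentrations in 10-fold steps over a 10,000-fold range specific to each compound, breast cancer cell lines were seeded as 20 µl suspension and incubated 72 h. CellTox Green fluorescence was measured at 485/520 nm, after which CellTiter-Glo luminescence was measured following 10 min at room temperature. Plate signals were normalised to 0.1 % DMSO (100) and a positive kill control (0), and each value is the normalised signal at a single concentration.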

CAL-85-1 [2] = assay: as above
In short: as §1

MCF-10A [3] = assay: as above
In short: as §1

DU-4475 [4] = assay: as above
In short: as §1

MDA-MB-231 [5] = assay: as above
In short: as §1

BT-474 [6] = assay: as above
In short: as §1

HCC1143 [7] = assay: as above
In short: as §1

HCC1599 [8] = assay: as above
In short: as §1

MDA-MB-453 [9] = assay: as above
In short: as §1

Hs578T [10] = assay: as above
In short: as §1

BT-549 [11] = assay: as above
In short: as §1

CAL-120 [12] = assay: as above
In short: as §1

MFM-223 [13] = assay: as above
In short: as §1

HCC1937 [14] = assay: as above
In short: as §1

MDA-MB-436 [15] = assay: as above
In short: as §1

CAL-148 [16] = assay: as above
In short: as §1

HDQ-P1 [17] = assay: normalised response (% of control), CellTiter-Glo; higher = more viable cells (100 = DMSO, 0 = benzethonium chloride kill control)
Method: (§2)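 DSRT, 72 h incubation, CellTox Green / CellTiter-Glo readout. Signal is normalised to DMSO and benzethonium chloride controls. Value is the normalised response at the highest dose.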

CAL-51 [18] = assay: as above
Method: as §2

CAL-85-1 [19] = assay: as above
Method: as §2

MCF-10A [20] = assay: as above
Method: as §2

DU-4475 [21] = assay: as above
Method: as §2

MDA-MB-231 [22] = assay: as above
Method: as §2

BT-474 [23] = assay: as above
Method: as §2

HCC1143 [24] = assay: as above
Method: as §2

HCC1599 [25] = assay: as above
Method: as §2

MDA-MB-453 [26] = assay: as above
Method: as §2

MDA-MB-468 [27] = assay: as above
Method: as §2

Hs578T [28] = assay: as above
Method: as §2

BT-549 [29] = assay: as above
Method: as §2

CAL-120 [30] = assay: as above
Method: as §2

MFM-223 [31] = assay: as above
Method: as §2

HCC1937 [32] = assay: as above
Method: as §2

MDA-MB-436 [33] = assay: as above
Method: as §2

SK-BR-3 [34] = assay: as above
Method: as §2

CAL-148 [35] = assay: as above
Method: as §2

HDQ-P1 [36] = assay: normalised response (% of control), CellTox Green; higher = less cell death (100 = DMSO, 0 = benzethonium chloride kill control)
In short: as §1

MDA-MB-468 [37] = assay: as above
In short: as §1

HDQ-P1 [38] = assay: normalised response (% of control), CellTiter-Glo; higher = more viable cells (100 = DMSO, 0 = benzethonium chloride kill control); remark: listed apart in the source
In short: as §1

CAL-51 [39] = assay: as above; remark: listed apart in the source
In short: as §1

CAL-85-1 [40] = assay: as above; remark: listed apart in the source
In short: as §1

MCF-10A [41] = assay: as above; remark: listed apart in the source
In short: as §1

DU-4475 [42] = assay: as above; remark: listed apart in the source
In short: as §1

MDA-MB-231 [43] = assay: as above; remark: listed apart in the source
In short: as §1

BT-474 [44] = assay: as above; remark: listed apart in the source
In short: as §1

HCC1143 [45] = assay: as above; remark: listed apart in the source
In short: as §1

HCC1599 [46] = assay: as above; remark: listed apart in the source
In short: as §1

MDA-MB-453 [47] = assay: as above; remark: listed apart in the source
In short: as §1

MDA-MB-468 [48] = assay: as above; remark: listed apart in the source
In short: as §1

Hs578T [49] = assay: as above; remark: listed apart in the source
In short: as §1

BT-549 [50] = assay: as above; remark: listed apart in the source
In short: as §1

CAL-120 [51] = assay: as above; remark: listed apart in the source
In short: as §1

MFM-223 [52] = assay: as above; remark: listed apart in the source
In short: as §1

HCC1937 [53] = assay: as above; remark: listed apart in the source
In short: as §1

MDA-MB-436 [54] = assay: as above; remark: listed apart in the source
In short: as §1

SK-BR-3 [55] = assay: as above; remark: listed apart in the source
In short: as §1

CAL-148 [56] = assay: as above; remark: listed apart in the source
In short: as §1

Row | Compound | normalised response (CAL-51 [1]) [%] | normalised response (CAL-85-1 [2]) [%] | normalised response (MCF-10A [3]) [%] | normalised response (DU-4475 [4]) [%] | normalised response (MDA-MB-231 [5]) [%] | normalised response (BT-474 [6]) [%] | normalised response (HCC1143 [7]) [%] | normalised response (HCC1599 [8]) [%] | normalised response (MDA-MB-453 [9]) [%] | normalised response (Hs578T [10]) [%] | normalised response (BT-549 [11]) [%] | normalised response (CAL-120 [12]) [%] | normalised response (MFM-223 [13]) [%] | normalised response (HCC1937 [14]) [%] | normalised response (MDA-MB-436 [15]) [%] | normalised response (CAL-148 [16]) [%] | normalised response (HDQ-P1 [36]) [%] | normalised response (MDA-MB-468 [37]) [%] | normalised response (HDQ-P1 [38]) [%] | normalised response (CAL-51 [39]) [%] | further results
1 | C[C@]12CC[C@@H]3c4ccc(OC(=O)N(CCCl)CCCl)cc4CC[C@H]3[C@@H]1CC[C@@H]2O [Estramustine] (10000 nM) | 74 | 130 | 106 | 96.4 | 102 | 99 | 110 | 95 | 96.2 | 79.7 | 58 | 98.3 | 96.7 | 81.2 | 99.6 | 101 |  |  |  |  | normalised response (HDQ-P1 [17]): 105%; normalised response (CAL-51 [18]): 93.3%; normalised response (CAL-85-1 [19]): 94.2%; normalised response (MCF-10A [20]): 88%; normalised response (DU-4475 [21]): 85.5%; normalised response (MDA-MB-231 [22]): 96.6%; normalised response (BT-474 [23]): 95%; normalised response (HCC1143 [24]): 97.5%; normalised response (HCC1599 [25]): 95.5%; normalised response (MDA-MB-453 [26]): 92.4%; normalised response (MDA-MB-468 [27]): 87.7%; normalised response (Hs578T [28]): 92.7%; normalised response (BT-549 [29]): 106%; normalised response (CAL-120 [30]): 103%; normalised response (MFM-223 [31]): 85.9%; normalised response (HCC1937 [32]): 91.7%; normalised response (MDA-MB-436 [33]): 91.7%; normalised response (SK-BR-3 [34]): 87.4%; normalised response (CAL-148 [35]): 78.5%
2 | C[C@]1(O)C[C@@H](c2nc(-c3ccc4ccc(-c5ccccc5)nc4c3)c3c(N)nccn32)C1 [Linsitinib] (10000 nM) | 95.4 | 89.2 | 101 | 97.4 | 65 | 95.6 | 119 | 101 | 99.2 | 68.2 | 111 | 97.5 | 89.9 | 105 |  | 98.4 | 107 | 96.4 |  |  | normalised response (HDQ-P1 [17]): 53.5%; normalised response (CAL-51 [18]): 126%; normalised response (CAL-85-1 [19]): 69.6%; normalised response (MCF-10A [20]): 26.1%; normalised response (DU-4475 [21]): 85.5%; normalised response (MDA-MB-231 [22]): 77.2%; normalised response (BT-474 [23]): 68.8%; normalised response (HCC1143 [24]): 68.5%; normalised response (HCC1599 [25]): 50.9%; normalised response (MDA-MB-453 [26]): 80%; normalised response (MDA-MB-468 [27]): 59.2%; normalised response (Hs578T [28]): 91.9%; normalised response (BT-549 [29]): 76%; normalised response (CAL-120 [30]): 73.6%; normalised response (MFM-223 [31]): 83.1%; normalised response (HCC1937 [32]): 88.7%; normalised response (MDA-MB-436 [33]): 85.5%; normalised response (SK-BR-3 [34]): 49.9%; normalised response (CAL-148 [35]): 88.2%
3 | Cc1ccc([N+](=O)[O-])cc1S(=O)(=O)N(C)/N=C/c1cnc2ccc(Br)cn12 [PIK-75] (100 nM) | 7.25 | 22 | 17.8 | 71.8 | -1.87 | 78.3 | 89.3 | 79.3 | 101 | 17.7 | 65.2 | 85.3 | 84 | 78.6 | 50.7 | 36.5 | 77.6 | 84.6 | 22.1 | 12.6 | normalised response (CAL-85-1 [40]): 14.4%; normalised response (MCF-10A [41]): 10.5%; normalised response (DU-4475 [42]): 8.8%; normalised response (MDA-MB-231 [43]): 8.41%; normalised response (BT-474 [44]): 18.7%; normalised response (HCC1143 [45]): 38.8%; normalised response (HCC1599 [46]): 47.9%; normalised response (MDA-MB-453 [47]): 56%; normalised response (MDA-MB-468 [48]): 14.4%; normalised response (Hs578T [49]): 14.7%; normalised response (BT-549 [50]): 8.06%; normalised response (CAL-120 [51]): 38.3%; normalised response (MFM-223 [52]): 31.3%; normalised response (HCC1937 [53]): 36.9%; normalised response (MDA-MB-436 [54]): 11.2%; normalised response (SK-BR-3 [55]): 19.3%; normalised response (CAL-148 [56]): 44.8%
4 | CC(C)(C)c1cnc(CSc2cnc(NC(=O)C3CCNCC3)s2)o1 [SNS-032] (100 nM) | 39.7 | 35.7 | 84.7 | 95.2 | 4.71 | 86.4 | 85 | 88.5 | 94.9 | 60.3 | 88.6 | 90.5 | 91.5 | 53.3 | 59.7 | -22.6 | 57.6 | 94.5 | 44.2 | 31.9 | normalised response (CAL-85-1 [40]): 28.2%; normalised response (MCF-10A [41]): 79.4%; normalised response (DU-4475 [42]): 86.9%; normalised response (MDA-MB-231 [43]): 29.7%; normalised response (BT-474 [44]): 68.2%; normalised response (HCC1143 [45]): 36.6%; normalised response (HCC1599 [46]): 90.2%; normalised response (MDA-MB-453 [47]): 46.2%; normalised response (MDA-MB-468 [48]): 12.6%; normalised response (Hs578T [49]): 55.6%; normalised response (BT-549 [50]): 20.3%; normalised response (CAL-120 [51]): 70.9%; normalised response (MFM-223 [52]): 76.9%; normalised response (HCC1937 [53]): 60.8%; normalised response (MDA-MB-436 [54]): 27.9%; normalised response (SK-BR-3 [55]): 33.1%; normalised response (CAL-148 [56]): 42.8%
5 | Cn1cnc2c(F)c(Nc3ccc(Br)cc3Cl)c(C(=O)NOCCO)cc21 [Selumetinib] (100 nM) | 98.7 | 94.9 | 94.8 | 92.2 | 77.1 | 96.5 | 86.3 | 89.2 | 101 | 102 | 104 | 95.8 | 94.9 | 100 | 77.2 | 90.4 | 97.9 | 75.3 | 70.6 | 94.1 | normalised response (CAL-85-1 [40]): 100%; normalised response (MCF-10A [41]): 45.7%; normalised response (DU-4475 [42]): 81%; normalised response (MDA-MB-231 [43]): 84.7%; normalised response (BT-474 [44]): 84.2%; normalised response (HCC1143 [45]): 92%; normalised response (HCC1599 [46]): 113%; normalised response (MDA-MB-453 [47]): 103%; normalised response (MDA-MB-468 [48]): 89.6%; normalised response (Hs578T [49]): 89.4%; normalised response (BT-549 [50]): 104%; normalised response (CAL-120 [51]): 90%; normalised response (MFM-223 [52]): 94.9%; normalised response (HCC1937 [53]): 85%; normalised response (MDA-MB-436 [54]): 96.2%; normalised response (SK-BR-3 [55]): 91%; normalised response (CAL-148 [56]): 94%
